Earlier results in patent US20100292280A1, “ANTI-PYRETIC VASODILATORS” (priority 2007, published 2010).

Assays:
[1] = test system: forearm and dorsum of the foot skin of healthy subjects and diabetic neuropathic patients
healthy adults = details: ingestion of 5 mg niacin per Kg body weight
skin = details: doses of niacin over 50 mg

Structure (SMILES) | vasodilatory response compared to the acetylcholine and sodium nitroprusside responses ([1]; control group, foot) | vasodilatory response, comparison between agents ([1]; control group, forearm) | maximal vasodilatory response, comparison between agents ([1]; diabetic patients, forearm and foot level) | time after application at which vasodilation was present ([1]; topical 1% methyl nicotinate) [min] | time of decline of vasodilation to pre-application levels ([1]; topical 1% methyl nicotinate) [min] | time of peak vasodilation ([1]; topical 1% methyl nicotinate) [min] | duration of the decrease of core body temperature (healthy adults) | time at which the sharp decrease in body temperature begins, after oral ingestion (healthy adults) | time of the peak of continuous temperature reduction, after ingestion (healthy adults) | undesired side effect reported by a significant portion of the subjects (healthy adults) | decrease of core body temperature (healthy adults; on average) [°C] | duration of flushing of the skin (skin)
COC(=O)c1cccnc1 [methyl nicotinate] | higher | similar | similar | 5 | 120 | 15 to 30 | – | – | – | – | – | –
O=C(O)c1cccnc1 [niacin, nicotinic acid] | – | – | – | – | – | – | about 70 minutes | about 20 minutes | about 50 minutes | sever hypotension | 0.44 | about 60 minutes
